Values joined by “and” are separate entries in the source; they are usually repeats but may differ in a detail not shown here. Equal values may be shown once.
Species: Rattus norvegicus
Assay: DrugMatrix - Regimen: Daily Repeat
Format: toxicity, organism-based, Sprague-Dawley
Parameters: regimen Daily Repeat, gender Male, age 6-8 weeks
Conditions: in vivo, ip, route intraperitoneal, vehicle 100 % SALINE; for ABSOLUTE BASOPHIL / ABSOLUTE EOSINOPHIL / ABSOLUTE LYMPHOCYTE / ABSOLUTE MONOCYTE / ABSOLUTE SEGMENTED NEUTROPHIL / BASOPHIL / EOSINOPHIL / ERYTHROCYTE COUNT / HEMATOCRIT / HEMOGLOBIN / LEUKOCYTE COUNT / LYMPHOCYTE / MEAN CORPUSCULAR HEMOGLOBIN / MEAN CORPUSCULAR HEMOGLOBIN CONCENTRATION / MEAN CORPUSCULAR VOLUME / MONOCYTE / NEUTROPHIL / PLATELET COUNT: tissue Blood
[1] = 0 mg/kg, […], tissue Plasma, dose level Control, time 28 day
[2] = 40 mg/kg, 120 h, dose level High, time 5 day
[3] = 40 mg/kg, 120 h, tissue Plasma, dose level High, time 5 day
[4] = 40 mg/kg, […], dose level High, time 14 day
[5] = 40 mg/kg, […], dose level High, time 28 day
[6] = 40 mg/kg, […], tissue Plasma, dose level High, time 28 day

CCN[C@@H]1C[C@H](N)[C@@H](O[C@H]2OC(CN)=CC[C@H]2N)[C@H](O)[C@H]1O[C@H]1OC[C@](C)(O)[C@H](NC)[C@H]1O [NETILMICIN]
TOTAL BILIRUBIN [1]: 0.21 mg/dL | TOTAL PROTEIN [1]: 6.66 G/DL | URIC ACID [1]: 1.26 mg/dL | ABSOLUTE BASOPHIL [2]: 100 cells/µL | ABSOLUTE EOSINOPHIL [2]: 100 cells/µL | ABSOLUTE LYMPHOCYTE [2]: 9410 cells/µL | ABSOLUTE MONOCYTE [2]: 270 cells/µL | ABSOLUTE SEGMENTED NEUTROPHIL [2]: 2070 cells/µL | BASOPHIL [2]: 0.82% and 0.23% | EOSINOPHIL [2]: 0.84% and 0.53% | ERYTHROCYTE COUNT [2]: 7.28 x10E6/uL and 7.2 x10E6/uL | HEMATOCRIT [2]: 44.78% and 47.4% | HEMOGLOBIN [2]: 14.6 G/DL and 14.93 G/DL | LEUKOCYTE COUNT [2]: 12 x10E3/uL and 6.78 x10E3/uL | LYMPHOCYTE [2]: 78.86% and 87.63% | MEAN CORPUSCULAR HEMOGLOBIN [2]: 20.02 pg and 20.77 pg | MEAN CORPUSCULAR HEMOGLOBIN CONCENTRATION [2]: 32.56 G/DL and 31.5 G/DL | MEAN CORPUSCULAR VOLUME [2]: 61.44 fL and 65.9 fL | MONOCYTE [2]: 2.18% and 1.53% | NEUTROPHIL [2]: 16.76% and 9.17% | PLATELET COUNT [2]: 1295.4 x10E3/uL and 1697.67 x10E3/uL | ALANINE AMINOTRANSFERASE [3]: 28.4 u/L and 20.25 u/L | ALBUMIN [3]: 3.44 G/DL and 4.28 G/DL | ALKALINE PHOSPHATASE [3]: 235.6 u/L and 305.25 u/L | ASPARTATE AMINOTRANSFERASE [3]: 91.8 u/L and 87.25 u/L | BLOOD UREA NITROGEN [3]: 12 mg/dL and 14.25 mg/dL | CARBON DIOXIDE [3]: 24.75 mmol/L | CHLORIDE [3]: 108.2 MEQ/L and 108.25 MEQ/L | CHOLESTEROL [3]: 53.8 mg/dL and 53 mg/dL | CREATINE PHOSPHOKINASE [3]: 194.6 u/L and 310.75 u/L | CREATININE [3]: 0.5 mg/dL and 0.47 mg/dL | GLUCOSE [3]: 137 mg/dL and 119.5 mg/dL | LACTATE DEHYDROGENASE [3]: 83.75 u/L and 121.25 u/L | LIPASE [3]: 16 u/L and 7 u/L | PHOSPHORUS [3]: 10.04 mg/dL and 12.5 mg/dL | POTASSIUM [3]: 6.52 MEQ/L and 5.8 MEQ/L | SODIUM [3]: 151.2 MEQ/L and 152.75 MEQ/L | TOTAL BILIRUBIN [3]: 0.12 mg/dL and 0.28 mg/dL | TOTAL PROTEIN [3]: 5.86 G/DL and 6.35 G/DL | URIC ACID [3]: 1.12 mg/dL and 2.02 mg/dL | ABSOLUTE BASOPHIL [4]: 76 cells/µL | ABSOLUTE EOSINOPHIL [4]: 100 cells/µL | ABSOLUTE LYMPHOCYTE [4]: 7150 cells/µL | ABSOLUTE MONOCYTE [4]: 160 cells/µL | ABSOLUTE SEGMENTED NEUTROPHIL [4]: 980 cells/µL | ABSOLUTE BASOPHIL [5]: 110 cells/µL | ABSOLUTE EOSINOPHIL [5]: 110 cells/µL | ABSOLUTE LYMPHOCYTE [5]: 11000 cells/µL | ABSOLUTE MONOCYTE [5]: 220 cells/µL | ABSOLUTE SEGMENTED NEUTROPHIL [5]: 1680 cells/µL | BASOPHIL [5]: 0.84% | EOSINOPHIL [5]: 0.81% | ERYTHROCYTE COUNT [5]: 8.07 x10E6/uL | HEMATOCRIT [5]: 45.66% | HEMOGLOBIN [5]: 15.06 G/DL | LEUKOCYTE COUNT [5]: 13.21 x10E3/uL | LYMPHOCYTE [5]: 83.38% | MEAN CORPUSCULAR HEMOGLOBIN [5]: 18.66 pg | MEAN CORPUSCULAR HEMOGLOBIN CONCENTRATION [5]: 32.99 G/DL | MEAN CORPUSCULAR VOLUME [5]: 56.56 fL | MONOCYTE [5]: 1.71% | NEUTROPHIL [5]: 12.78% | PLATELET COUNT [5]: 1402.4 x10E3/uL | CARBON DIOXIDE (40 mg/kg, […], tissue Plasma, dose level High, time 14 day): 27 mmol/L | ALANINE AMINOTRANSFERASE [6]: 27.9 u/L | ALBUMIN [6]: 3.58 G/DL | ALKALINE PHOSPHATASE [6]: 144.2 u/L | ASPARTATE AMINOTRANSFERASE [6]: 86.4 u/L | BLOOD UREA NITROGEN [6]: 16.3 mg/dL | CHLORIDE [6]: 108.5 MEQ/L | CHOLESTEROL [6]: 59.4 mg/dL | CREATINE PHOSPHOKINASE [6]: 139.4 u/L | CREATININE [6]: 0.7 mg/dL | GLUCOSE [6]: 120.4 mg/dL | LACTATE DEHYDROGENASE [6]: 85.6 u/L | LIPASE [6]: 22.9 u/L | PHOSPHORUS [6]: 8.66 mg/dL | POTASSIUM [6]: 5.83 MEQ/L
